pIC50: −log10 of the molar value.
Molecular target: HCV RdRp (NS5B) (UniProt P26663)
Type: biochemical, hepatitis C virus

HCV RdRp (NS5B), sequence (P26663 whole entry, looked up): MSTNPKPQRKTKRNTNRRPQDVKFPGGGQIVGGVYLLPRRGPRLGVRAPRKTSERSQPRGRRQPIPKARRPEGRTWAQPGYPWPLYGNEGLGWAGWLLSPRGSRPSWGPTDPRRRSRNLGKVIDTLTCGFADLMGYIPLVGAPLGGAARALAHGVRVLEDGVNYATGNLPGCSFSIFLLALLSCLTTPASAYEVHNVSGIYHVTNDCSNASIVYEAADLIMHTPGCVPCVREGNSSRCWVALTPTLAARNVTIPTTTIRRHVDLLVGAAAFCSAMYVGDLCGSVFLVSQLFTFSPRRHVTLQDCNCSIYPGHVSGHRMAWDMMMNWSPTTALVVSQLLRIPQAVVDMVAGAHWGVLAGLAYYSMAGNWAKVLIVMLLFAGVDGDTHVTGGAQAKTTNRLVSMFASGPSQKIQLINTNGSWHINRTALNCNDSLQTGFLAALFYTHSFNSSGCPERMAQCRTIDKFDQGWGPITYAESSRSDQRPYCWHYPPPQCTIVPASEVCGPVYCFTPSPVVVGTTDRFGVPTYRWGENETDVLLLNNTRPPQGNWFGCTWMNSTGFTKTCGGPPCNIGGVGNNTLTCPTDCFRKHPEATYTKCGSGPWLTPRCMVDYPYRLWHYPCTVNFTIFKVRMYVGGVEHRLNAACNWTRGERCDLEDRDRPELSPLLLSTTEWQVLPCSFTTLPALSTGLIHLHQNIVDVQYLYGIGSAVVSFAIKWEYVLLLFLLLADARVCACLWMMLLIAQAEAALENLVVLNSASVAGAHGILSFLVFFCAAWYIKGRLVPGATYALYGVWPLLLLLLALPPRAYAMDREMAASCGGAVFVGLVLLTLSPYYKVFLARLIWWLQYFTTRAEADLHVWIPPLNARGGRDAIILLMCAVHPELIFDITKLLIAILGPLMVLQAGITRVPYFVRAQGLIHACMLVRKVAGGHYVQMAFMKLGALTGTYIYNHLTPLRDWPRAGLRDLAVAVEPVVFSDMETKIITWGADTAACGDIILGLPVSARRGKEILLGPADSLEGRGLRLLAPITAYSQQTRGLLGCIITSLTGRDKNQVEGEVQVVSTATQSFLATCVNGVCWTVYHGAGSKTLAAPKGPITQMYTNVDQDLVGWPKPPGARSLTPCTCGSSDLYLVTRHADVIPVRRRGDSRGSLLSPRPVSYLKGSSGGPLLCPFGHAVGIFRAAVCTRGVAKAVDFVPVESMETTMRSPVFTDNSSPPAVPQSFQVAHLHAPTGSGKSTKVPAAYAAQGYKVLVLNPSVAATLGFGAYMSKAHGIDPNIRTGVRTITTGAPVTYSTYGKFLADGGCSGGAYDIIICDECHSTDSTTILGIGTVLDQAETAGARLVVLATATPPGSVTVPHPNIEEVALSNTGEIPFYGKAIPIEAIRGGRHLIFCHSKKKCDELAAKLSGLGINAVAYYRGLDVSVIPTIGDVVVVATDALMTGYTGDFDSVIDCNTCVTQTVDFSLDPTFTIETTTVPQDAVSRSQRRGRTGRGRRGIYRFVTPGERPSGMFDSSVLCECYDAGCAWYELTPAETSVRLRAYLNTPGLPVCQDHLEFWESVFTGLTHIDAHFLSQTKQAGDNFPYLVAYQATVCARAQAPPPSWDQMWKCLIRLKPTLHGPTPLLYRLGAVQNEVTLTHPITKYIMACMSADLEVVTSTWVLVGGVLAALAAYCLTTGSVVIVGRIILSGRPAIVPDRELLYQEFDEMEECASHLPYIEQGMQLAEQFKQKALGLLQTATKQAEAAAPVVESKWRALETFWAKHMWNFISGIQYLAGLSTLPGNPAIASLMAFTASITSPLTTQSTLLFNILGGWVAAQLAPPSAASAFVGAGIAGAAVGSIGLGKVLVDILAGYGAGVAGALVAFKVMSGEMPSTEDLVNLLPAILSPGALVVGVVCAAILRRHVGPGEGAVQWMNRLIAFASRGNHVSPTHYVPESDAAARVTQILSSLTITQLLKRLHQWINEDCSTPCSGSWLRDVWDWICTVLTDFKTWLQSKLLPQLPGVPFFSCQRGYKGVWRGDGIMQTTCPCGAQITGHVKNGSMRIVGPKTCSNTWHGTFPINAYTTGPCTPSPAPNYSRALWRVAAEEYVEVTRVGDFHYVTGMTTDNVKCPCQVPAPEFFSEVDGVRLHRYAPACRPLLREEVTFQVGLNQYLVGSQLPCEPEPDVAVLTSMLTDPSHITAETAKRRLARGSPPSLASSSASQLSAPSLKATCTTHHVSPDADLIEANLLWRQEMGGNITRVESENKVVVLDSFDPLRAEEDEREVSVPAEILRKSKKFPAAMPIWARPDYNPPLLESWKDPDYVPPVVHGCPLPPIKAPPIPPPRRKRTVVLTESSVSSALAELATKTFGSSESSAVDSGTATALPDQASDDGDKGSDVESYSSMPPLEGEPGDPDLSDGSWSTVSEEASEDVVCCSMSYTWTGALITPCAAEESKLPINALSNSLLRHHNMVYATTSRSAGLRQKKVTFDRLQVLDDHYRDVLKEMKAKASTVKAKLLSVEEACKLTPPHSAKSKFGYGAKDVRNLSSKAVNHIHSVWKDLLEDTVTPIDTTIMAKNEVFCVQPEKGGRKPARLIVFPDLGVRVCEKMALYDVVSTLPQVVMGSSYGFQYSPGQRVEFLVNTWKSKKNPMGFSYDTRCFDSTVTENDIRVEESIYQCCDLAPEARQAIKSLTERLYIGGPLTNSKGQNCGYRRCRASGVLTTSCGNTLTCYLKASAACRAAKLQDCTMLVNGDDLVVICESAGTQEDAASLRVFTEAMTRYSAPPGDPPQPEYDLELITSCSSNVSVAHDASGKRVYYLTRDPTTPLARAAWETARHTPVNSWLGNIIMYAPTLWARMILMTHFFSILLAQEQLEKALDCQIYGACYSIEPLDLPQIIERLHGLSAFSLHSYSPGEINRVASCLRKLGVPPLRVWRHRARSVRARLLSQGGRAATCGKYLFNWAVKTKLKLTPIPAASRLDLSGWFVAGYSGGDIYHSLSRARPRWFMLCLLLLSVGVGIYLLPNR

SMILES	pIC50
Cc1ccc(NCC(=O)N[C@@H](CCCCN)C(=O)Nc2ccc(C)cc2)cc1 [Compound 356, (S)-6-AMINO-2-(2-P-TOLYLAMINO-ACETYLAMINO)-HEXANOIC ACID P-TOLYLAMIDE]	< 4.30
NCCC[C@@H](NC(=O)Nc1ccc(-c2ccccc2)cc1)C(=O)Nc1ccc(C2CCCCC2)cc1 [Compound 201, (R)-5-AMINO-2-(3-BIPHENYL-4-YL-UREIDO)-PENTANOIC ACID (4-CYCLOHEXYL-PHENYL)-AMIDE]	> 5.00
Cc1ccc(NC(=O)C(CCCCN)NC(=O)c2ccc(F)c3ccccc23)cc1 [Compound 64, (S)-4-FLUORO-NAPHTHALENE-1-CARBOXYLIC ACID (5-AMINO-1-P-TOLYLCARBAMOYL-PENTYL)-AMIDE]	< 4.30
NCCCC[C@H](NC(=O)Nc1ccc(OCc2ccccc2)cc1)C(=O)N1CCCCC1 [Compound 290, (S)-1-[5-AMINO-1-(PIPERIDINE-1-CARBONYL)-PENTYL]-3-(4-BENZYLOXY-PHENYL)-UREA]	< 4.30
NCCCC[C@H](NC(=O)c1ccccc1)C(=O)Nc1ccc(CN(C(=O)c2ccco2)C2CCCCC2)cc1 [Compound 27, (S)-FURAN-2-CARBOXYLIC ACID [4-(6-AMINO-2-BENZOYLAMINO-HEXANOYLAMINO)-BENZYL]-CYCLOHEXYL-AMIDE]	< 4.30
Cc1ccc(NC(=O)C(CCCCN)NC(=O)C(N)Cc2cccc3ccccc23)cc1 [Compound 60, (S,S)-6-AMINO-2-(2-AMINO-3-NAPHTHALEN-1-YL-PROPIONYLAMINO)-HEXANOIC ACID P-TOLYLAMIDE]	< 4.30
Cc1ccc(NC(=O)C(CCCCN)NC(=O)Nc2ccc(Cc3ccccc3)cc2)cc1 [Compound 74, (S)-6-AMINO-2-[3-(4-BENZYL-PHENYL)-UREIDO]-HEXANOIC ACID P-TOLYLAMIDE]	4.30 to 5.00
C=CCOC(=O)NCCCC[C@H](N)C(=O)Nc1ccc(CN(C(=O)c2ccco2)C2CCCCC2)cc1 [Compound 5, (S)-[5-AMINO-5-(4-{[CYCLOHEXYL-(FURAN-2-CARBONYL)-AMINO]-METHYL}-PHENYLCARBAMOYL)-PENTYL]-CARBAMIC ACID ALLYL ESTER]	< 4.30
Cc1ccc(NC(=O)C(CCCCN)NC(=O)Cc2ccc3ccccc3c2)cc1 [Compound 48, (S)-6-AMINO-2-(2-NAPHTHALEN-2-YL-ACETYLAMINO)-HEXANOIC ACID P-TOLYLAMIDE]	< 4.30
COc1ccc(C[C@H](N)C(=O)Nc2ccc(CN(C(=O)c3ccco3)C3CCCCC3)cc2)cc1 [Compound 9, (S)-FURAN-2-CARBOXYLIC ACID {4-[2-AMINO-3-(4-METHOXY-PHENYL)-PROPIONYLAMINO]-BENZYL}-CYCLOHEXYL-AMIDE]	< 4.30
NCCC[C@@H](NC(=O)OCC1c2ccccc2-c2ccccc21)C(=O)Nc1ccc(C2CCCCC2)cc1 [Compound 198, (R)-[4-AMINO-1-(4-CYCLOHEXYL-PHENYLCARBAMOYL)-BUTYL]-CARBAMIC ACID 9H-FLUOREN-9-YLMETHYL ESTER]	> 5.00
O=C(CNC(=O)OCC1c2ccccc2-c2ccccc21)Nc1ccc(CN(C(=O)c2ccco2)C2CCCCC2)cc1 [Compound 18, [(4-{[CYCLOHEXYL-(FURAN-2-CARBONYL)-AMINO]-METHYL}-PHENYLCARBAMOYL)-METHYL]-CARBAMIC ACID 9H-FLUOREN-9-YLMETHYL ESTER]	< 4.30
Cc1ccc(NC(=O)[C@@H](N)CCCCN)cc1 [Compound 114, (S)-2,6-DIAMINO-HEXANOIC ACID P-TOLYLAMIDE]	< 4.30
Cc1ccc(NC(=O)C(Cc2cccs2)NC(=O)OCC2c3ccccc3-c3ccccc32)cc1 [Compound 381, (S)-(2-THIOPHEN-2-YL-1-P-TOLYLCARBAMOYL-ETHYL)-CARBAMIC ACID 9H-FLUOREN-9-YLMETHYL ESTER]	< 4.30
Cc1ccc(NC(=O)CC2CN(C(=O)C(C)N)CCN2C(=O)OCC2c3ccccc3-c3ccccc32)cc1 [Compound 184, 4-((S)-2-AMINO-PROPIONYL)-2-(P-TOLYLCARBAMOYL-METHYL)-PIPERAZINE-1-CARBOXYLIC ACID 9H-FLUOREN-9-YLMETHYL ESTER]	< 4.30
Cc1ccc(NC(=O)C[C@H](CCCCN)NC(=O)Nc2ccc3c(c2)Cc2ccccc2-3)cc1 [Compound 247, (S)-7-AMINO-3-[3-(9H-FLUOREN-2-YL)-UREIDO]-HEPTANOIC ACID P-TOLYLAMIDE]	4.30 to 5.00
Cc1ccc(NC(=O)[C@H](CCCCN)NC(=O)CNc2ccc(F)cc2)cc1 [Compound 361, (S)-6-AMINO-2-[2-(4-FLUORO-PHENYLAMINO)-ACETYLAMINO]-HEXANOIC ACID P-TOLYLAMIDE]	< 4.30
Cc1ccc(NC(=O)CC2CN(C(=O)CN)CCN2C(=O)OCC2c3ccccc3-c3ccccc32)cc1 (racemic) [Compound 182, (+/−)-4-(2-AMINO-ACETYL)-2-(P-TOLYLCARBAMOYL-METHYL)-PIPERAZINE-1-CARBOXYLIC ACID 9H-FLUOREN-9-YLMETHYL ESTER]	< 4.30
Cc1ccc(NC(=O)C(Cc2c[nH]c3ccccc23)NC(=O)OCC2c3ccccc3-c3ccccc32)cc1 [Compound 378, (S)-[2-(1H-INDOL-3-YL)-1-P-TOLYLCARBAMOYL-ETHYL]-CARBAMIC ACID 9H-FLUOREN-9-YLMETHYL ESTER]	< 4.30

SMILES	pIC50
NCCCCCCNC(=O)C(NC(=O)Nc1ccc(OCc2ccccc2)cc1)c1ccccc1 [Compound 319, (S)-NR-(6-AMINO-HEXYL)-2-[3-(4-BENZYLOXY-PHENYL)-UREIDO]-2-PHENYL-ACETAMIDE]	> 5.00
Cc1ccc(NC(=O)C(CCCCN)NC(=O)Nc2ccc(CCc3ccccc3)cc2)cc1 [Compound 243, (S)-6-AMINO-2-[3-(4-PHENETHYL-PHENYL)-UREIDO]-HEXANOIC ACID P-TOLYLAMIDE]	< 4.30
Cc1ccc(NC(=O)C(CNC(=O)CN)NC(=O)OCC2c3ccccc3-c3ccccc32)cc1 [Compound 115, (S)-[2-(2-AMINO-ACETYLAMINO)-1-P-TOLYLCARBAMOYL-ETHYL]-CARBAMIC ACID 9H-FLUOREN-9-YLMETHYL ESTER]	4.30 to 5.00
Cc1ccc(NC(=O)C(CCCCN)NC(=O)NCc2ccccc2)cc1 [Compound 168, (R)-6-AMINO-2-(3-BENZYL-UREIDO)-HEXANOIC ACID P-TOLYLAMIDE]	< 4.30
CCCCOc1ccc(NC(=O)N[C@@H](CCCCN)C(=O)Nc2ccc(C)cc2)cc1 [Compound 244, (S)-6-AMINO-2-[3-(4-BUTOXY-PHENYL)-UREIDO]-HEXANOIC ACID P-TOLYLAMIDE]	< 4.30
NCCCC[C@@H](NC(=O)OCC1c2ccccc2-c2ccccc21)C(=O)Nc1ccc(-c2ccccc2)cc1 [Compound 144, (R)-[5-AMINO-1-(BIPHENYL-4-YLCARBAMOYL)-PENTYL]-CARBAMIC ACID 9H-FLUOREN-9-YLMETHYL ESTER]	> 5.00
COc1cccc(CNCC(=O)N[C@@H](CCCCN)C(=O)Nc2ccc(C)cc2)c1 [Compound 342, (S)-6-AMINO-2-[2-(3-METHOXY-BENZYLAMINO)-ACETYLAMINO]-HEXANOIC ACID P-TOLYLAMIDE]	< 4.30
Cc1ccc(NC(=O)[C@H](CCCCN)NC(=O)Nc2ccc(O)cc2)cc1 [Compound 194, (S)-6-AMINO-2-[3-(4-HYDROXY-PHENYL)-UREIDO]-HEXANOIC ACID P-TOLYLAMIDE]	< 4.30
Cc1cc2cc(NC(=O)[C@H](CCCCNC(=O)CN)NC(=O)Nc3ccc4c(c3)Cc3ccccc3-4)ccc2[nH]1 [Compound 298, (S)-6-(2-AMINO-ACETYLAMINO)-2-[3-(9H-FLUOREN-2-YL)-UREIDO]-HEXANOIC ACID (2-METHYL-1H-INDOL-5-YL)-AMIDE]	< 4.30
Cc1cc2cc(NC(=O)[C@H](CCCNC(=O)CN)NC(=O)OCC3c4ccccc4-c4ccccc43)ccc2[nH]1 [Compound 238, (S)-[4-(2-AMINO-ACETYLAMINO)-1-(2-METHYL-1H-INDOL-5-YLCARBAMOYL)-BUTYL]-CARBAMIC ACID 9H-FLUOREN-9-YLMETHYL ESTER]	> 5.00
Cc1ccc(NC(=O)[C@H](CCCCN)NC(=O)Nc2ccc(OCc3cccc(F)c3F)cc2)cc1 [Compound 284, (S)-6-AMINO-2-{3-[4-(2,3-DIFLUORO-BENZYLOXY)-PHENYL]-UREIDO}-HEXANOIC ACID P-TOLYLAMIDE]	4.30 to 5.00
NCc1ccc(NC(=O)C(NC(=O)Nc2ccc(OCc3ccccc3)cc2)c2ccccc2)cc1 [Compound 305, (S)-NR-(4-AMINOMETHYL-PHENYL)-2-[3-(4-BENZYLOXY-PHENYL)-UREIDO]-2-PHENYL-ACETAMIDE]	> 5.00
Cc1ccc(NC(=O)C(CO)NC(=O)OCC2c3ccccc3-c3ccccc32)cc1 [Compound 375, (R)-(2-HYDROXY-1-P-TOLYLCARBAMOYL-ETHYL)-CARBAMIC ACID 9H-FLUOREN-9-YLMETHYL ESTER]	< 4.30
CC(=O)c1cccc(NC(=O)[C@H](CCCCN)NC(=O)OCC2c3ccccc3-c3ccccc32)c1 [Compound 219, (S)-[1-(3-ACETYL-PHENYLCARBAMOYL)-5-AMINO-PENTYL]-CARBAMIC ACID 9H-FLUOREN-9-YLMETHYL ESTER]	< 4.30
Cc1cc2cc(NC(=O)[C@H](CCNC(=O)CN)NC(=O)Nc3ccc(OCc4ccccc4)cc3)ccc2[nH]1 [Compound 241, (S)-4-(2-AMINO-ACETYLAMINO)-2-[3-(4-BENZYLOXY-PHENYL)-UREIDO]-N-(2-METHYL-1H-INDOL-5-YL)-BUTYRAMIDE]	> 5.00
NCCCCN(CC(=O)Nc1cccc2[nH]ccc12)C(=O)Nc1ccc(OCc2ccccc2)cc1 [Compound 281, 2-[1-(4-AMINO-BUTYL)-3-(4-BENZYLOXY-PHENYL)-UREIDO]-NR-(1H-INDOL-4-YL)-ACETAMIDE]	< 4.30
Cc1cc2cc(NC(=O)[C@H](CCCCNC(=O)CN)NC(=O)OCC3c4ccccc4-c4ccccc43)ccc2[nH]1 [Compound 233, (S)-[5-(2-AMINO-ACETYLAMINO)-1-(2-METHYL-1H-INDOL-5-YLCARBAMOYL)-PENTYL]-CARBAMIC ACID 9H-FLUOREN-9-YLMETHYL ESTER]	> 5.00
NCCCCC(NC(=O)OCC1c2ccccc2-c2ccccc21)C(=O)NCc1ccccc1 (stereo in doubt) [Compound 21, (S)-(5-AMINO-1-BENZYLCARBAMOYL-PENTYL)-CARBAMIC ACID 9H-FLUOREN-9-YLMETHYL ESTER]	< 4.30
CCNCC(=O)N1CCN(C(=O)OCC2c3ccccc3-c3ccccc32)C(CC(=O)Nc2ccc(C)cc2)C1 (centres unmarked) [Compound 187, 4-(2-ETHYLAMINO-ACETYL)-2-(P-TOLYLCARBAMOYL-METHYL)-PIPERAZINE-1-CARBOXYLIC ACID 9H-FLUOREN-9-YLMETHYL ESTER]	4.30 to 5.00

Reference: US20070021434A1, “NON-NUCLEOSIDE ANTI-HEPACIVIRUS AGENTS AND USES THEREOF” (Migenix Inc., priority 2005, published 2007)
